Measurements reported in the supplement of paper PMC10307832.

Columns and labels:
Assay in all cases: relative viability (nuclei count vs DMSO), 5 days (fraction); higher = more cells survive
RAF265 + Foretinib = compound: Cn1c(Nc2ccc(C(F)(F)F)cc2)nc2cc(Oc3ccnc(-c4ncc(C(F)(F)F)[nH]4)c3)ccc21 [RAF265] + COc1cc2c(Oc3ccc(NC(=O)C4(C(=O)Nc5ccc(F)cc5)CC4)cc3F)ccnc2cc1OCCCN1CCOCC1 [Foretinib] (partner 0.25 µM)
Summary of the method: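 Relative viability was taken as the ratio of nuclei in treated wells to nuclei in vehicle wells. Lung cancer cell lines in 1536-well plates received compounds by pin tool one day after seeding, either one drug alone or a fixed anchor-drug dose plus five library-drug doses (not always all listed) in √10 steps. Nuclei were counted on 4× images after 5 days of treatment, and values are medians of duplicate plates.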

IPA-3 = compound: C1=CC=C2C(=C1)C=CC(=C2SSC3=C(C=CC4=CC=CC=C43)O)O [IPA-3]
Summary of the method: (§1)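 Viability is treated-well nuclei as a fraction of vehicle-well nuclei, reported as the median across plates. Before counting, lung cancer cell lines were kept overnight at 37 °C in 1536-well plates, pinned with five √10-spaced library-drug doses on vehicle-anchored plates, and left 5 days without medium change, then fixed, permeabilised and Hoechst-stained in one step, imaged at 4× and counted by MetaXpress. A plate passed only if control CV was below 25% and at least one doubling occurred.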

Doramapimod = compound: Cc1ccc(-n2nc(C(C)(C)C)cc2NC(=O)Nc2ccc(OCCN3CCOCC3)c3ccccc23)cc1 [Doramapimod]
Summary of the method: as §1

RAF265 = compound: Cn1c(Nc2ccc(C(F)(F)F)cc2)nc2cc(Oc3ccnc(-c4ncc(C(F)(F)F)[nH]4)c3)ccc21 [RAF265]
Summary of the method: as §1

Cell Line	relative viability (RAF265 + Foretinib; first compound 0.01 µM)	relative viability (RAF265 + Foretinib; first compound 0.03162 µM)	relative viability (RAF265 + Foretinib; first compound 0.1 µM)	relative viability (RAF265 + Foretinib; first compound 0.3162 µM)	relative viability (RAF265 + Foretinib; first compound 1 µM)	relative viability (IPA-3; 0.2 µM)	relative viability (IPA-3; 0.6325 µM)	relative viability (IPA-3; 2 µM)	relative viability (IPA-3; 6.325 µM)	relative viability (IPA-3; 20 µM)	relative viability (Doramapimod; 0.02 µM)	relative viability (Doramapimod; 0.06325 µM)	relative viability (Doramapimod; 0.2 µM)	relative viability (Doramapimod; 0.6325 µM)	relative viability (Doramapimod; 2 µM)	relative viability (RAF265; 0.01 µM)	relative viability (RAF265; 0.03162 µM)	relative viability (RAF265; 0.1 µM)	relative viability (RAF265; 0.3162 µM)	relative viability (RAF265; 1 µM)
NCI-H1355	0.65	0.923	0.823	0.464	0.38	1.11	0.98	0.988	0.965	0.98	1.02	0.984	0.939	1.03	0.86	1	0.943	0.895	0.72	0.441
EKVX	1.21	0.676	0.963	0.419	0.715	1.08	0.994	1.05	1.01	1.32	0.971	0.968	0.876	1	0.952	1.11	0.988	1.09	0.573	0.796
NCI-H441	1.28	1.04	0.966	0.884	0.623	1.37	0.951	0.896	1.04	0.915	0.999	0.845	1.08	1.06	0.859	1.01	0.928	1.08	0.78	0.753
NCI-H1975	0.88	0.74	0.639	0.383	0.333	1.06	0.924	0.957	1.1	0.993	1.03	1.04	1.08	1.05	1.04	0.932	0.956	0.602	0.442	0.406
HCC-78	0.512	0.587	0.583	0.617	0.526	1.04	0.907	1.04	1.04	0.994	0.962	1.07	1.06	1.14	1.02	0.947	1.12	1.15	0.927	0.878
NCI-H2085	0.859	0.929	0.957	0.987	1.06	1.07	0.957	1.01	0.933	1.18	1.04	0.975	1.01	1.01	0.966	1.04	0.904	1.05	0.915	0.97
H3255	0.88	0.88	0.847		0.55	1	0.973	0.895	0.986	1.22	1.05	0.981	0.96	0.968	0.933	1	1.05	1.03		0.67
NCI-H2087	0.967	1.1	0.938	0.797	0.663	1.33	0.87	0.89	0.935	1.13	1.05	0.975	1.14	1.01	1	1.04	0.796	0.796	0.617	0.639
LC-2-ad	1.22	0.921	0.94	0.863	0.645	1.05	0.958	0.978	1.03	0.992	0.991	1.02	1.07	1.02	0.923	1.09	0.989	1.11	0.748	0.484
PC-3 [JPC-3]	1.04	1.07	1.12		0.595	1.09	1.07	1.01	0.96	1	1.15	1.11	1.1	1.13	0.904	1.07	1	1.12	0.488	0.743
EBC-1	0.101	0.112	0.0984	0.107	0.113	1.29	0.984	1.01	0.963	0.933	0.949	0.987	0.991	1.03	0.838	1.05	0.966	0.939	0.794	0.611
HCC-15	1.03	1.04	0.991	0.883	0.673	1.17	0.98	0.931	0.972	0.998	0.993	0.99	0.936	0.74	0.915	0.99	1.02	1.01	0.819	0.684
NCI-H1563	1.05	1	0.984	0.989	0.935	1.09	0.959	1.01	1.1	1.17	0.996	0.996	1.11	1.28	1.06	1.06	1.05	1.01	1.03	0.932
COR-L 105	1.29	1.5	1.1	1.15	0.614	1.2	0.882	0.901	0.984	0.827	0.861	0.93	0.935	1.1	0.993	1.08	1.05	0.954	0.463	0.563
NCI-H520	0.763	0.585	0.749	0.819	0.474	1.07	0.888	0.916	1.03	0.929	0.943	0.933	0.941	0.88	0.868	1.11	0.869	1.03	1.02	0.614
LU99A	0.837	0.745	0.624	0.522	0.332	1.02	0.89	0.932	0.919	0.98	0.944	0.906	1.03	1	0.949	0.971	0.987	0.705	0.492	0.373
